For assay [1], the target named is T1, human GST-π GSTP1a-1a, recombinant, encoded by hGSTP1*A (Ile104, Ala113; SEQ ID NO:3 and SEQ ID NO:4) (Homo sapiens, UniProt P09211).
T1 construct: made in house; host or cells: E. coli (XL1 Blue, pBK-CMV vector)
In words: Enzyme kinetics: catalysis of the conjugation of GSH with CDNB by purified recombinant GST-π protein. The class given is biochemical. The following applies: 25° C., 0.1M K-phosphate buffer pH 8.3, 2.5 mM GSH. On the procedure:
(§1) FIGS. 8A-C. Lineweaver-Burke plots for the catalysis of the conjugation of GSH with CDNB by GSH-affinity chromatography purified recombinant GSTP1a-1a (FIG. 8A), GSTP1b-1b (FIG. 8B) and GSTP1c-1c (FIG. 8C). Reaction rates were determined with 2.5 mM GSH and 0.015 unit of each enzyme.
(§2) Purification and enzyme kinetic analysis of variant GST-π proteins. Functional consequences of the structural differences in the GST-π variant proteins was determined by the differential ability of the recombinant GST-π proteins to catalyze the conjugation of GSH with 1-chloro-2,4-dinitrobenzene (CDNB), a universal GST substrate. After expression in E. coli, the three GST-π proteins were purified by GSH-affinity chromatography on S-hexyl glutathione linked to epoxy-activated sepharose 6B, as previously described (Simons and Van der Jagt, 1981) and then used for enzyme kinetic analysis. Reaction mixtures (25° C.) in 100 mM potassium phosphate buffer, pH 8.3 contained 0.5-2.5 mM CDNB, 2.5 mM GSH and 0.015 unit of purified GST-π protein. The change in absorbance was monitored at 340 nm over two minutes and used to compute reaction rates. The rates of the spontaneous reactions of GSH with CDNB, determined with reaction mixtures in which the GST-π enzyme was replaced with buffer, were subtracted from the rates of the enzyme catalyzed reactions. The resulting reaction rates were used to generate double reciprocal plots from which Vmax and Km values were determined, using standard methodology (Segel, 1976).

In assay [2] the target is T2, human GST-π variant GSTP1b-1b, recombinant, encoded by hGSTP1*B (Ile104→Val104; SEQ ID NO:5 and SEQ ID NO:6) (Homo sapiens, UniProt P09211, I105V).
T2 construct: made in house; host or cells: E. coli (XL1 Blue, pBK-CMV vector)
The description is as above. Type of assay: biochemical. Particulars: 25° C., 0.1M K-phosphate buffer pH 8.3, 2.5 mM GSH. On the procedure:
as §1, §2

Assay [3] addresses T3, human GST-π variant GSTP1c-1c, recombinant, encoded by hGSTP1*C (Ile104→Val104, Ala113→Val113; SEQ ID NO:7 and SEQ ID NO:8) (Homo sapiens, UniProt P09211, A114V/I105V).
T3 construct: made in house; host or cells: E. coli (XL1 Blue, pBK-CMV vector)
The assay is described as above. Type of assay: biochemical. The following applies: 25° C., 0.1M K-phosphate buffer pH 8.3, 2.5 mM GSH. On the procedure: as §1, §2

Assay [4] relates to RAR-β levels in MGR-3 cells. Description: Induction of RAR-β in nuclear extracts of RA-treated MGR-3 cells (immunoprecipitation). Type of assay: cell-based. Particulars: Homo sapiens, 48-hr exposure, read-out: increase in RAR-β levels compared to untreated controls.
Assay [5] concerns GST-π gene expression in MGR-3 cells. Description: Retinoic acid effect on GST-π gene expression in tumor cells (Northern and Western blotting). Particulars: Homo sapiens. The class given is cell-based. On the procedure: Retinoic acid effect on GST-π gene expression in tumor cells. To further determine the functionality of the RAREs in GST-π gene of MGR-3 cell line, we examined changes in GST-π gene transcripts in MGR-3 cells after exposure to RA. For this study, MGR-3 cells in exponential growth were treated with 1 μM all-trans RA. Another set cultures without RA treatment served as controls. After 24 and 48 hrs incubation at 37° C., total RNA was extracted and GST-π gene transcript levels were determined by Northern blotting, as described earlier. Alterations in GST-π protein content was determined in cells similarly treated with 1 μM all-trans RA. Cultures were harvested after 0, 12, 24 and 48 hrs post-RA exposure, cell extracts prepared from them, as previously described, and subjected to Western blotting with anti-GST-π antibodies.
(In general: Immunoblotting shows a protein as a band on a membrane.)

[6] abbreviates: listed as 1-Chloro-2,4-dinitrobenzene.

Like-named read-outs stand apart in the source and are kept apart here. Where only a bound is given, the exact number is not on record here.

T1 sequence (P09211 2-210 limits assumed): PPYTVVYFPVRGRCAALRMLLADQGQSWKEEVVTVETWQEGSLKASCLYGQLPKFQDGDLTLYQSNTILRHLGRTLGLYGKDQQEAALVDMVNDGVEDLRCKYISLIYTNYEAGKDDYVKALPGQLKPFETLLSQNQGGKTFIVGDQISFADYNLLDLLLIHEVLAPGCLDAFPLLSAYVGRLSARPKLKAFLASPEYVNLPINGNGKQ
T2 sequence (P09211 2-210 I105V): as the sequence (P09211 2-210 limits assumed) above, with I104V counted along it
T3 sequence (P09211 2-210 I105V/A114V): as the sequence (P09211 2-210 limits assumed) above, with I104V, A113V counted along it

Regarding `O=[N+]([O-])c1ccc(Cl)c([N+](=O)[O-])c1` [CDNB, 1-chloro-2,4-dinitrobenzene], the “Vmax (CDNB)” value worked out at 4.7 ± 0.03 µmol/min/mg in assay [1]; 4.7 ± 0.03 µmol/min/mg in assay [1] (setting [6]); 1.7 ± 0.087 µmol/min/mg in assay [2]; 1.6 ± 0.087 µmol/min/mg in assay [2] (setting [6]); 1.4 ± 0.23 µmol/min/mg in assay [3]; 1.4 ± 0.23 µmol/min/mg in assay [3] (setting [6]). The Km in assay [1] (0.5-2.5 mM CDNB) is 980 µM; in assay [2] (0.5-2.5 mM CDNB), 2700 ± 23 µM; in assay [3] (0.5-2.5 mM CDNB), 3100 ± 170 µM.

Turning to `CC1=C(/C=C/C(C)=C/C=C/C(C)=C/C(=O)O)C(C)(C)CCC1` [all-trans retinoic acid], the fold induction at 1 µM in assay [4] was more than 3; in assay [5] (1.0 μM, 48 hr, Northern analysis, read-out: increase in the level of GST-π gene transcripts relative to control levels (maximum)), 3.4; in assay [5] (1 μM, 48 hrs, Western blot, read-out: increase in GST-π protein content relative to untreated controls), 2.8.

As a reminder, the Km is the substrate concentration at which the rate is half of its maximum.

The values above are taken from US5968737A, “Method of identifying inhibitors of glutathione S-transferase (GST) gene expression” (The University of Mississippi, priority 1996, dated 1999).
